Converted amounts (≈) assume the structure as drawn. Where two headings read alike, the source gives them in different places.
What was measured:
Assay type in all cases: cell-based
[1] = system: C. albicans CAF2-1; experiment: microbe, parasite or virus in culture
Source text: (§1) The antifungal activities of compounds 1a, 1 and 2 (collectively: caspofungin derivatives) were compared to that of caspofungin and CSF-BOD using a panel of 49 C. albicans and C. glabrata strains (Tables 1 and 2). The panel included ATCC strains and clinical isolates as well a collection of caspofungin-responsive strains and their corresponding isogenic caspofungin-resistant derivatives, constructed by introducing point mutations within and near the defined hotspots in the FKS1 and/or FKS2 genes of the GS complex. Minimal inhibitory concentration (MIC) values for all strains were determined using the broth double dilution method and are summarized in FIG. 2 and Table 2. […] The clinical breakpoints (threshold) for caspofungin-resistance in C. albicans and C. glabrata are 1 μg/mL and 0.5 μg/mL, respectively.

[2] = system: panel of 49 C. albicans and C. glabrata strains; experiment: Antifungal activity (MIC) compared to caspofungin over the panel; conditions: for antifungal activity based on MIC values: panel of 49 strains; for MIC values higher than the parent caspofungin: ratio to caspofungin MIC, FIG. 2, Table 2; for antifungal activity spectrum: resistant vs responsive strains of the panel
Source text: as §1, with “Minimal inhibitory concentration (MIC) values for all strains were determined using the broth double dilution method and are summarized in FIG. 2 and Table 2.” left out, “respectively. […]” for “respectively.”

[3] = system: C. glabrata ATCC 15126; experiment: MIC, broth double dilution
Source text: as §1

[4] = system: C. glabrata ATCC 2001; experiment: MIC, broth double dilution
Source text: as §1

[5] = system: C. glabrata T-192 (1775); experiment: MIC, broth double dilution
Source text: as §1

[6] = system: C. albicans SN152; experiment: MIC, broth double dilution; conditions: strain no. 5, C. albicans SN152
Source text: as §1

[7] = system: C. glabrata ATCC 90030; experiment: MIC, broth double dilution
Source text: as §1

[8] = system: C. glabrata ATCC 66032; experiment: MIC, broth double dilution; conditions: strain no. 40, C. glabrata ATCC 66032
Source text: as §1

[9] = system: C. albicans ATCC 24433; experiment: MIC, broth double dilution; conditions: strain no. 6, C. albicans ATCC 24433
Source text: as §1

[10] = system: C. glabrata CST109; experiment: MIC, broth double dilution; conditions: strain no. 18, C. glabrata CST109 (parental)
Source text: as §1

[11] = system: C. albicans BWP17; experiment: MIC, broth double dilution; conditions: strain no. 9, BWP17, parental RM1000
Source text: as §1

[12] = system: C. glabrata BG2; experiment: MIC, broth double dilution; conditions: strain no. 34, C. glabrata BG2
Source text: as §1

[13] = system: C. glabrata T-984 (11-078); experiment: MIC, broth double dilution
Source text: as §1

[14] = system: C. glabrata EF1620; experiment: MIC, broth double dilution; conditions: strain no. 31, C. glabrata EF1620
Source text: as §1

[15] = system: C. glabrata T-193 (11-282); experiment: MIC, broth double dilution
Source text: as §1

[16] = system: C. albicans SC5314 and SN152; experiment: Competition for cellular uptake with probe 1, flow cytometry; conditions: added simultaneously with probe 1; caspofungin 1 μM, 10 μM; fluconazole 10 μM
Experimental: To determine if caspofungin competes for cellular uptake with fluorescent probe 1, both the drug and the probe were added simultaneously to cultures of strains SC5314 and SN152. The uptake of probe 1 was measured by flow cytometry every 15 minutes for 1 hour (FIG. 6B). […] No effect on the uptake of probe 1 was detected in cells co-treated with the antifungal azole drug fluconazole, which inhibits the biosynthesis of fungal membrane sterol, ergosterol.

[17] = system: C. albicans SC5314 cells; experiment: Cell viability by propidium iodide (PI) staining, PBS vs YPAD; conditions: 1 μM
Experimental: To determine whether the caspofungin relocalization and apparent cell damage and death is a feature of caspofungin (and not only of the fluorescent caspofungin probe 1), cell viability was followed using propidium iodide (PI), a dye normally excluded from metabolically active cells.
Cell viability was compared in the presence and absence of 1 μM unlabeled caspofungin, using cells incubated either in PBS or in YPAD. […] Thus, cells exposed to caspofungin in nutrient-rich conditions become permeable to PI, an indicator of cell death. This observation explains the non-specific distribution of probe 1 in the cytoplasm after prolonged incubation (FIG. 7A). It is also consistent with the idea that plasma membrane permeabilization and cell death are likely accompanied by the loss of structural integrity of organelles, including the vacuoles detected here.

[18] = strain no. 10, CAF2-1, parental SC5314
[19] = strain no. 41, C. glabrata ATCC 15126
[20] = strain no. 39, C. glabrata ATCC 2001
[21] = strain no. 44, T-192 (1775), clinical isolate
[22] = strain no. 16, C. glabrata ATCC 90030, WT
[23] = strain no. 48, T-984 (11-078), clinical isolate
[24] = strain no. 45, T-193 (11-282), clinical isolate
[25] = Candida albicans, read-out: MIC
[26] = Nakaseomyces glabratus, read-out: MIC

SMILES | MIC [1, 18] [µg/mL] | antifungal activity based on MIC values [2] | MIC values higher than the parent caspofungin [2] | antifungal activity spectrum [2] | MIC [3, 19] [µg/mL] | MIC [4, 20] [µg/mL] | MIC [5, 21] [µg/mL] | MIC [6] [µg/mL] | MIC [7, 22] [µg/mL] | MIC [8] [µg/mL] | MIC [9] [µg/mL] | MIC [10] [µg/mL] | MIC [11] [µg/mL] | MIC [12] [µg/mL] | MIC [13, 23] [µg/mL] | MIC [14] [µg/mL] | MIC [15, 24] [µg/mL] | further results
CC[C@H](C)C[C@H](C)CCCCCCCCC(=O)N[C@H]1C[C@@H](O)[C@@H](NCCN)NC(=O)[C@@H]2[C@@H](O)CCN2C(=O)[C@H]([C@H](O)CCN)NC(=O)[C@H]([C@H](O)[C@@H](O)c2ccc(OCc3cn(CCCNc4ccc([N+](=O)[O-])c5nonc45)nn3)cc2)NC(=O)[C@@H]2C[C@@H](O)CN2C(=O)[C@H]([C@@H](C)O)NC1=O [Compound 2] | 1 (≈ 0.717 µM) | retained antifungal activities | 16-16 | identical to that of caspofungin | 4 (≈ 2.87 µM) | 2 (≈ 1.43 µM) | 2 (≈ 1.43 µM) | 1 (≈ 0.717 µM) | 4 (≈ 2.87 µM) | 2 (≈ 1.43 µM) | 1 (≈ 0.717 µM) | 4 (≈ 2.87 µM) | 1 (≈ 0.717 µM) | 4 (≈ 2.87 µM) | 2 (≈ 1.43 µM) | 2 (≈ 1.43 µM) | 4 (≈ 2.87 µM) | 
CC[C@H](C)C[C@H](C)CCCCCCCCC(=O)N[C@H]1C[C@@H](O)[C@@H](NCCN)NC(=O)[C@@H]2[C@@H](O)CCN2C(=O)[C@H]([C@H](O)CCN)NC(=O)[C@H]([C@H](O)[C@@H](O)c2ccc(OCc3cn(CCCNC(=O)c4ccc(-c5c6ccc(=[N+](C)C)cc-6oc6cc(N(C)C)ccc56)c(C(=O)[O-])c4)nn3)cc2)NC(=O)[C@@H]2C[C@@H](O)CN2C(=O)[C@H]([C@@H](C)O)NC1=O [Compound 1] | 0.5 (≈ 0.304 µM) | retained antifungal activities | 4-16 | identical to that of caspofungin | 1 (≈ 0.608 µM) | 1 (≈ 0.608 µM) | 0.5 (≈ 0.304 µM) | 0.25 (≈ 0.152 µM) | 1 (≈ 0.608 µM) | 1 (≈ 0.608 µM) | 0.5 (≈ 0.304 µM) | 1 (≈ 0.608 µM) | 0.25 (≈ 0.152 µM) | 1 (≈ 0.608 µM) | 0.5 (≈ 0.304 µM) | 0.5 (≈ 0.304 µM) | 1 (≈ 0.608 µM) | 
CC[C@H](C)C[C@H](C)CCCCCCCCC(=O)N[C@H]1C[C@@H](O)[C@@H](NCCN)NC(=O)[C@@H]2[C@@H](O)CCN2C(=O)[C@H]([C@H](O)CCN)NC(=O)[C@H]([C@H](O)[C@@H](O)c2ccc(O)cc2)NC(=O)[C@@H]2C[C@@H](O)CN2C(=O)[C@H]([C@@H](C)O)NC1=O [Caspofungin] |  |  |  |  |  |  |  |  |  |  |  |  |  |  |  |  |  | MIC ([1]; Candida albicans, SC5314): 0.063 µg/mL (≈ 0.0576 µM); effect on the uptake of probe 1 [16]: reduced the uptake of probe 1 in a dose-dependent manner; MIC ([3]; Nakaseomyces glabratus, ATCC15126): 0.125 µg/mL (≈ 0.114 µM); MIC ([4]; Nakaseomyces glabratus, ATCC2001): 0.125 µg/mL (≈ 0.114 µM); MIC ([5]; Nakaseomyces glabratus): 0.063 µg/mL (≈ 0.0576 µM); MIC [6, 25]: 0.031 µg/mL (≈ 0.0284 µM); MIC ([7]; Nakaseomyces glabratus, ATCC90030): 0.125 µg/mL (≈ 0.114 µM); MIC ([8]; Nakaseomyces glabratus, ATCC66032, read-out: MIC): 0.125 µg/mL (≈ 0.114 µM); MIC ([9]; Candida albicans, ATCC24433, read-out: MIC): 0.063 µg/mL (≈ 0.0576 µM); MIC [10, 26]: 0.125 µg/mL (≈ 0.114 µM); MIC [11, 25]: 0.031 µg/mL (≈ 0.0284 µM); MIC [12, 26]: 0.125 µg/mL (≈ 0.114 µM); MIC ([13]; Nakaseomyces glabratus): 0.063 µg/mL (≈ 0.0576 µM); MIC [14, 26]: 0.063 µg/mL (≈ 0.0576 µM); MIC ([15]; Nakaseomyces glabratus): 0.125 µg/mL (≈ 0.114 µM); cell viability, PI staining ([17]; PBS): cells excluded the PI stain; cell viability, PI staining ([17]; YPAD, after 15 min): viable; cell viability, PI staining ([17]; YPAD, after 2 h): stained brightly with PI
